# Patent US12173012B2, “Indolocarbazole analogs of staurosporine and methods of synthesis thereof” (priority 2020, dated 2024)
# Like-named read-outs stand apart in the source and are kept apart here.
# Key:
# [1] = tested on: MDA-MB-231 breast cancer cell line; conditions: read-out: MDA-MB-231 IC50; MDA-MB-231 cells, 72 h incubation, MTS readout
# [2] = tested on: HMLE breast cancer cell line; conditions: for IC50: read-out: HMLE IC50
# [3] = tested on: MDA-MB-231 breast cancer cell line; assay: cells; conditions: Homo sapiens, MDA-MB-231, 72 h, read-out: MDA-MB-231 IC50
SMILES,IC50 [1],fold less active/potent than staurosporine against HMLE cell line [2],IC50 [2],IC50 [3]
"CN[C@@H]1C[C@H]2O[C@@](C)([C@@H]1OC)n1c3cc(O)ccc3c3c4c(c5c6ccccc6n2c5c31)C(=O)NC4 [Compound 14, 10-OH staurosporine]",3.4 nM,12.0 fold,58.7 nM,–
CN[C@@H]1C[C@H]2O[C@@](C)([C@@H]1OC)n1c3ccccc3c3c4c(c5c6ccccc6n2c5c31)C(=O)NC4 [Staurosporine],–,–,–,2.5 nM
"CN[C@@H]1C[C@H]2O[C@@](C)([C@@H]1OC)n1c3ccc(O)cc3c3c4c(c5c6ccccc6n2c5c31)C(=O)NC4 [Compound 13, 9-OH staurosporine]",2 nM,5.6 fold,27.5 nM,–
